ChEMBL document CHEMBL5338730, “Metabolism-Guided Selective Androgen Receptor Antagonists: Design, Synthesis, and Biological Evaluation for Activity against Enzalutamide-Resistant Prostate Cancer” (J Med Chem, 2023)

Legend:
in vitro = details: mouse, microsomes
Description: Half life in mouse liver microsomes at 50 uM measured for 60 mins in presence of NADP+

[1] = mouse, microsomes, 1 h, 50 µM

SMILES	half-life at 1 h, 50 µM (in vitro) [h]	CLH [1] [µL/min/mg]
C[C@](O)(CS(=O)(=O)c1ccc(F)cc1)C(=O)Nc1ccc(C#N)c(C(F)(F)F)c1 [(R)-BICALUTAMIDE]	10	
C[C@](O)(COc1ccc(C#N)cc1)C(=O)Nc1ccc(C#N)c(C(F)(F)F)c1 [ENOBOSARM]		1400
